The record followed here is PMC4538536, “In Silico-Based High-Throughput Screen for Discovery of Novel Combinations for Tuberculosis Treatment” (Antimicrobial Agents and Chemotherapy, 2015).

In brackets after ≈: the same amount, converted by molar mass. Read-outs that look alike come from different tables or passages of the source.

For data set [1], the system named is M. tuberculosis H37Rv. Description: MIC determination, resazurin-based microplate assay. Conditions: Mycobacterium tuberculosis, single drug. The format is cell-based, Mycobacterium tuberculosis. On the technique in general: Alamar Blue is a resazurin reagent that responds to reducing activity.
Data set [2] relates to M. tuberculosis H37Rv. Description: In vitro bactericidal-effect analysis (CFU enumeration of checkerboard wells). It is filed as cell-based, Mycobacterium tuberculosis. As to conditions: single drug at its MIC (FIC of 1); positive = reduction in CFU. The procedure: For determining the extent of the bactericidal effect, sample wells which remained blue in the resazurin microtiter assay (REMA) and whose ΣFICs were within the synergistic-to-additive range (<0.7 for doublets and <1.5 for triplets) were plated on Middlebrook 7H10 agar medium and incubated at 37°C for 21 to 28 days, following which bacterial colonies were enumerated to obtain the net reduction in CFU in comparison to the counts for the untreated controls at the start of drug testing, as well as to that achieved when M. tuberculosis was exposed to each drug alone.

Data set [3] in a line: In vivo pharmacokinetics in infected mice (plasma, LC-MS/MS). More on the design: species or system BALB/c mice. As to conditions: BALB/c, mouse, plasma, po, steady state, infected mice. As for the experimental part: The drugs were formulated in 0.5% hydroxypropyl methyl cellulose (HPMC)–0.1% Tween 80 suspensions as 3- or 4-drug combinations. Formulations were prepared by weighing and adding each compound to the bottle, according to the design. Formulation vehicle was added, and the suspension was stirred overnight. Only uniform suspensions were used, while those that precipitated were abandoned. Formulations were prepared every week, and compound stability was estimated at the end of the week. Pharmacokinetics (PK) analysis was performed on infected mice on the 20th day of dosing. Blood samples were collected from each mouse at 0.5, 2, 4, 6, and 24 h after compound administration. Blood samples of about 30 μl were collected from mice in all groups by serial sampling via the saphenous vein into Microvette CB300 tubes (Starstedt, Germany) coated with EDTA, and plasma (10 μl) was separated following centrifugation. Plasma samples were stored at –20°C until analysis using liquid chromatography-tandem mass spectrometry (LC-MS/MS).
A 1-mg/ml stock solution of each compound was prepared in dimethyl sulfoxide (DMSO) for all of the analytes except PZA and LZD, for which the stock solution was 10 mg/ml in DMSO, and RIF, for which the stock solution was prepared in 50% acetonitrile in water. Three different sets of calibration standard (CS) combinations were prepared by 2-fold dilution of the stock solutions. CS set 1 contained analytes CLO, BDQ, PA824, PZA, and SQ109, CS set 2 contained analytes BTZ043, MXF, THI, EMB, and PZA, and CS set 3 contained LZD, INH, RIF, and PZA. A 16-point calibration curve was utilized for all analytes, and the standard curves ranged from 0.0005 to 20 μg/ml except for PZA and LZD, for which the standard curve range was 0.006 to 200 μg/ml. Plasma samples were precipitated by adding chilled acetonitrile (1:10, vol/vol) containing carbamazepine as an internal standard (10 ng/ml). Samples were vortexed and then centrifuged at 4,000 rpm for 30 min at 10°C. The resulting supernatant was mixed with the mobile phase (50% acetonitrile in water with 0.1% formic acid). Five microliters of the sample was injected on to a liquid chromatographic system (Acquity ultraperformance liquid chromatography [UPLC] system, Waters, Milford, MA) coupled to a triple-quadrupole mass spectrometer (Xevo TQ-S; Waters, Milford, MA). Samples were separated on an LC column (ACE 3 C18, 50 by 4.6 mm, 3 μm particle size; Advanced Chromatography Technologies, Aberdeen, Scotland) by isocratic elution with 40 parts of 20 mM ammonium formate containing 0.1% (vol/vol) formic acid and 60 parts of acetonitrile at a flow rate of 0.5 ml/min with a run time of 4 min. Samples were acquired in positive ion mode and detected by multiple reaction monitoring (MRM). The concentrations of the analyte were determined from a standard curve obtained by plotting known concentrations of the analyte against peak area ratios (analyte/internal standard peak response).
PK analyses of the plasma concentration-time relationships were performed with Phoenix software (version 6.2; Pharsight, USA). A noncompartmental analysis program, model 200, was used to calculate PK parameters. The maximum concentration of drug in plasma (Cmax), time to Cmax (Tmax), elimination half-life (t1/2), and area under the concentration-time curve (AUC) from time zero to infinity (AUC0–∞) were estimated. AUC was computed using the trapezoidal rule (linear up and log down), and the AUC0–∞ was considered only when the extrapolated AUC was not more than 20% of the original value. A minimum of three sample points in the terminal slope were used to calculate half-life.

[4] abbreviates: 100 mg/kg, Ref. regimen triplet INH 30/RIF 10/EMB 100 mg/kg oral, read-out: AUC0-24 in Triplet.
Setting [5] is: 100 mg/kg, Ref. regimen triplet INH 30/RIF 10/EMB 100 mg/kg oral, read-out: Cmax in Triplet.
Where [6] appears, read: 150 mg/kg, Ref. regimen quartet INH 30/RIF 10/EMB 100/PZA 150 mg/kg oral, read-out: AUC0-24 in Quartet.
Setting [7] is: 150 mg/kg, Ref. regimen quartet INH 30/RIF 10/EMB 100/PZA 150 mg/kg oral, read-out: Cmax in Quartet.
Where [8] appears, read: 150 mg/kg, Group 7 quartet PA824 50/BDQ 25/MXF 400/PZA 150 mg/kg oral, read-out: AUC0-24 in Quartet.
Setting [9] is: 150 mg/kg, Group 7 quartet PA824 50/BDQ 25/MXF 400/PZA 150 mg/kg oral, read-out: Cmax in Quartet.
Setting [10] is: 400 mg/kg, Group 7 triplet PA824 50/BDQ 25/MXF 400 mg/kg oral, read-out: AUC0-24 in Triplet.
Setting [11] is: 400 mg/kg, Group 7 triplet PA824 50/BDQ 25/MXF 400 mg/kg oral, read-out: Cmax in Triplet.

Usually MIC stands for the lowest concentration that inhibits growth of the organism. Higher therefore signals a need for much substance. For orientation: Cmax means the maximum level reached in the sampled fluid or tissue. In data set [1], `NNC(=O)c1ccncc1` [Isoniazid] had an MIC of 0.22 µM (≈ 0.0302 µg/mL). The “ΔLog10 CFU/ml at the MIC” value in data set [2] turned out to be 1.02 Log10 CFU/ml. Moreover, the AUC(0-t) turned out to be 19800 ± 4700 ng·h/mL in data set [3] (setting [4]) and 12000 ± 3400 ng·h/mL in data set [3] (setting [6]). Also, the Cmax in data set [3] (setting [5]) was 10800 ± 2900 ng/mL; in data set [3] (setting [7]), 7000 ± 3200 ng/mL.
For the molecule `CC(=O)NC[C@H]1CN(c2ccc(N3CCOCC3)c(F)c2)C(=O)O1` [Linezolid], in data set [1], inhibition of growth (MIC) required 2.31 µM (≈ 0.779 µg/mL). Moreover, the “ΔLog10 CFU/ml at the MIC” value in data set [2] is recorded as 0.25 Log10 CFU/ml. The AUC(0-t) in data set [3] (130 mg/kg, Group 9 triplet EMB 100/SQ109 25/LZD 130 mg/kg oral, read-out: AUC0-24 in Triplet) is 154000 ± 8800 ng·h/mL; in data set [3] (150 mg/kg, Group 9 quartet EMB 100/SQ109 25/LZD 130/PZA 150 mg/kg oral, read-out: AUC0-24 in Quartet) it was 178000 ± 12200 ng·h/mL. The Cmax came out at 14100 ± 100 ng/mL in data set [3] (130 mg/kg, Group 9 triplet EMB 100/SQ109 25/LZD 130 mg/kg oral, read-out: Cmax in Triplet) and 14900 ± 1200 ng/mL in data set [3] (150 mg/kg, Group 9 quartet EMB 100/SQ109 25/LZD 130/PZA 150 mg/kg oral, read-out: Cmax in Quartet).
In turn, `COc1c(N2C[C@@H]3CCCN[C@@H]3C2)c(F)cc2c(=O)c(C(=O)O)cn(C3CC3)c12` [Moxifloxacin] showed an MIC in data set [1] of 0.02 µM (≈ 0.00803 µg/mL). The “ΔLog10 CFU/ml at the MIC” value in data set [2] is reported as 1.40 Log10 CFU/ml. Further, the AUC(0-t) was 13300 ± 3100 ng·h/mL in data set [3] (150 mg/kg, Group 3 quartet BTZ043 37.5/SQ109 25/MXF 200/PZA 150 mg/kg oral, read-out: AUC0-24 in Quartet); 76300 ± 13900 ng·h/mL in data set [3] (setting [8]); 12100 ± 3500 ng·h/mL in data set [3] (200 mg/kg, Group 3 triplet BTZ043 37.5/SQ109 25/MXF 200 mg/kg oral, read-out: AUC0-24 in Triplet); 29800 ± 6600 ng·h/mL in data set [3] (setting [10]). Also, the highest concentration (Cmax) is 3900 ± 600 ng/mL in data set [3] (150 mg/kg, Group 3 quartet BTZ043 37.5/SQ109 25/MXF 200/PZA 150 mg/kg oral, read-out: Cmax in Quartet); 5100 ± 700 ng/mL in data set [3] (setting [9]); 2200 ± 900 ng/mL in data set [3] (200 mg/kg, Group 3 triplet BTZ043 37.5/SQ109 25/MXF 200 mg/kg oral, read-out: Cmax in Triplet); 4600 ± 800 ng/mL in data set [3] (setting [11]).
Turning to `O=[N+]([O-])c1cn2c(n1)OC[C@@H](OCc1ccc(OC(F)(F)F)cc1)C2` [PA824], it took 1.09 µM (≈ 0.392 µg/mL) to inhibit growth in data set [1] (MIC). In data set [2], the “ΔLog10 CFU/ml at the MIC” value is recorded as 1.07 Log10 CFU/ml. The AUC(0-t) in data set [3] (50 mg/kg, Group 1 triplet CFZ 20/BDQ 25/PA824 50 mg/kg oral, read-out: AUC0-24 in Triplet) came out at 76700 ± 18500 ng·h/mL; in data set [3] (50 mg/kg, Group 2 triplet SQ109 25/BDQ 25/PA824 50 mg/kg oral, read-out: AUC0-24 in Triplet), 86200 ± 8600 ng·h/mL; in data set [3] (100 mg/kg, Group 8 triplet PA824 50/BDQ 25/EMB 100 mg/kg oral, read-out: AUC0-24 in Triplet) it was 119000 ± 13800 ng·h/mL; in data set [3] (150 mg/kg, Group 1 quartet CFZ 20/BDQ 25/PA824 50/PZA 150 mg/kg oral, read-out: AUC0-24 in Quartet) it was 60900 ± 8000 ng·h/mL; in data set [3] (150 mg/kg, Group 2 quartet SQ109 25/BDQ 25/PA824 50/PZA 150 mg/kg oral, read-out: AUC0-24 in Quartet), 60700 ± 10000 ng·h/mL; in data set [3] (setting [8]) it was 92100 ± 12700 ng·h/mL. The AUC(0-t) in data set [3] (150 mg/kg, Group 8 quartet PA824 50/BDQ 25/EMB 100/PZA 150 mg/kg oral, read-out: AUC0-24 in Quartet) stood at 66400 ± 19000 ng·h/mL; in data set [3] (setting [10]), 134000 ± 41700 ng·h/mL. The highest concentration (Cmax) turned out to be 11200 ± 2400 ng/mL in data set [3] (50 mg/kg, Group 1 triplet CFZ 20/BDQ 25/PA824 50 mg/kg oral, read-out: Cmax in Triplet); 9300 ± 2300 ng/mL in data set [3] (50 mg/kg, Group 2 triplet SQ109 25/BDQ 25/PA824 50 mg/kg oral, read-out: Cmax in Triplet); 13300 ± 500 ng/mL in data set [3] (100 mg/kg, Group 8 triplet PA824 50/BDQ 25/EMB 100 mg/kg oral, read-out: Cmax in Triplet); 7800 ± 1100 ng/mL in data set [3] (150 mg/kg, Group 1 quartet CFZ 20/BDQ 25/PA824 50/PZA 150 mg/kg oral, read-out: Cmax in Quartet); 7300 ± 1100 ng/mL in data set [3] (150 mg/kg, Group 2 quartet SQ109 25/BDQ 25/PA824 50/PZA 150 mg/kg oral, read-out: Cmax in Quartet); 6000 ± 800 ng/mL in data set [3] (setting [9]). Also, the Cmax in data set [3] (150 mg/kg, Group 8 quartet PA824 50/BDQ 25/EMB 100/PZA 150 mg/kg oral, read-out: Cmax in Quartet) came out at 9800 ± 3600 ng/mL; in data set [3] (setting [11]), 8400 ± 1000 ng/mL.
`CO[C@H]1/C=C/O[C@@]2(C)Oc3c(C)c(O)c4c(O)c(c(/C=N/N5CCN(C)CC5)c(O)c4c3C2=O)NC(=O)/C(C)=C\C=C\[C@H](C)[C@H](O)[C@@H](C)[C@@H](O)[C@@H](C)[C@H](OC(C)=O)[C@@H]1C` [Rifampin]: 0.009 µM (≈ 0.00741 µg/mL) was the least that counted as inhibitory in data set [1] (MIC). Also, in data set [2], the “ΔLog10 CFU/ml at the MIC” value was 1.24 Log10 CFU/ml. Further, the AUC(0-t) in data set [3] (setting [4]) was 25400 ± 7300 ng·h/mL; in data set [3] (setting [6]) it was 22200 ± 8600 ng·h/mL. Besides, the Cmax is 4900 ± 1300 ng/mL in data set [3] (setting [5]) and 5500 ± 3000 ng/mL in data set [3] (setting [7]).
